{
  "source": "patent US12403106B2",
  "about": "“Prophylactic skin treatment for radiation therapy” (THE BOARD OF TRUSTEES OF THE LELAND STANFORD JUNIOR …, priority 2019, dated 2025)",
  "key": {"[1]": {"system": "fat grafts", "assay": "Fat graft volume retention by micro-CT in DFO preconditioned irradiated scalp (Example 1)", "type": "in vivo", "details": "DFO preconditioned irradiated mice, mean±SE", "description": "(§1) Adult 60-day-old male Cr1:NU-Fox1NU immunocompromised mice were used for experiments in this study. Twelve mice were treated with a total of 30 Gy external beam radiation, delivered as six fractionated doses of 5 Gy each over 12 days, followed by 5 weeks of recovery. An additional six non-irradiated mice were used as healthy controls for laser Doppler analysis (LDA) and skin analysis. Irradiated mice were divided into two treatment groups: a DFO experimental group and saline control group. Following recovery, mice underwent injection of either DFO (1 mg in 100 μl saline) or 100 μl of saline alone beneath the dermis every other day for a total of seven treatments.\nAfter irradiation, fat grafting was performed on the irradiated mice. After informed consent was obtained, lipoaspirate was obtained from three healthy donors, with no other medical co-morbidities under an approved IRB protocol #2188.\nLipoaspirate was allowed to settle for 15 minutes for layers to separate by gravity sedimentation, and then oil and blood layers were removed by vacuum aspiration. The remaining fat layer was centrifuged at 1300 ref for 3 minutes at 4° C. Any remaining oil and blood was again removed and the remaining fat was transferred into lee syringes for injection through a 14-gauge needle. Fat grafting was performed beneath the scalp by creating a subcutaneous tunnel with the needle and then injecting […] of lipoaspirate in retrograde fashion while pulling the needle out.\nMice were also imaged using a MicroCAT-11 in vivo X-Ray micro-CT scanner (Imtek, Inc.; Knoxville, Tenn.) two days after fat graft injection for baseline volume measurements. Fat graft volume retention was then analyzed every two weeks over a total of 8 weeks using microcomputed tomography, and images were reconstructed as three-dimensional surfaces through cubic-spline interpolation. All reconstructions were performed by a single investigator to avoid inter-observer variability."}, "[2]": {"system": "irradiated scalp", "assay": "Laser Doppler analysis of perfusion of irradiated scalp, DFO injection (Example 1)", "type": "in vivo, mice", "details": "mean±SE", "description": "as §1\nLaser Doppler Analysis (“LDA”) was performed to measure perfusion at the irradiated site using a Perimed PIM 3 laser Doppler perfusion imager (Datavagen, Sweden). The signal generated by the LDA, laser Doppler perfusion index (LDPI), was used for comparative purposes. LDPI is a product of the blood cell velocity and concentration and is represented by a color spectrum, with black/dark blue representing low perfusion and red representing high perfusion. LDA was performed prior to irradiation, following completion of irradiation and recovery, and then twenty-four hours following each treatment with DFO or saline. […]\nFive images were taken of each mouse, and the average LDPI of the five images was recorded. […]"}},
  "data": [
    {"smiles": "CC(=O)N(O)CCCCCNC(=O)CCC(=O)N(O)CCCCCNC(=O)CCC(=O)N(O)CCCCCN", "note": "[DFO, deferoxamine]", "values": [
      {"measurement": "fat graft volume retention", "setting": "[1]; two weeks after fat grafting", "result": 89.24, "unit": "%"},
      {"measurement": "fat graft volume retention", "setting": "[1]; week 6 after fat grafting", "result": 73.17, "unit": "%"},
      {"measurement": "fat graft volume retention", "setting": "[1]; week 8 after fat grafting", "result": 71.75, "unit": "%"},
      {"measurement": "laser Doppler perfusion index at the scalp", "setting": "[2]; 30 Gy irradiated scalp, 1 mg DFO injected beneath the dermis every other day, after four treatments", "result": "205.08±2.30", "unit": "LDPI"},
      {"measurement": "laser Doppler perfusion index following fat grafting", "setting": "[2]; two weeks following injection of fat grafts, DFO preconditioned mice", "result": "86.33±2.00", "unit": "LDPI"}
    ]}
  ]
}
